The test system of one assay is UV-13.1. Kind of assay: In vitro cytotoxicity assay (SRB). The note with it: 48 h, DMSO. It counts as cell-based, murine. On the procedure:
(§1) UV-13.1 and T7 cells are cultured in DMEM medium (Gibco Catalogue number 11960) supplemented with sodium-pyruvate (Gibco Catalogue number 11360-070, final concentration 1 mM), L-glutamine (Gibco, catalogue number 25030-081, final concentration 2 mM) and penicillin/streptomycin (Catalogue number 490269, diluted 1:100). B 16 cells are cultured in RPMI (QIMR) supplemented with 10% FBS and penicillin/streptomycin.
(§2) Cells are seeded with in 10,000 per microtitre wells in 100 μl of culture medium and incubated overnight to enable them to adhere to the bottom of the well. Quadruplicate wells aere treated with ingenol mebutate (PEP005 #250803 final concentration 0.232-232 μM) dissolved in DMSO (Sigma, D2650). […] Included in the assay were cells treated with vehicle alone (1% DMSO) and control. The treated cells are incubated at 37° C. for 48 h. Medium from the microtitre plates is tipped out; the wells are washed once with PBS to remove any excess FBS and then are fixed with methylated spirits for a minimum of 5 min. The methylated spirit is tipped off and the wells are washed once with tap water. A volume of 50 μl of sulforhodmain B (SRB) solution (0.4% SRB in 1% acetic acid) is added to each well and the plates are incubated at room temperature for a minimum of 15 min. The SRB solution is tipped off and the plates are washed twice with tap water and then twice with 1% acetic acid. The final wash of acetic acid is tapped out of the plate and 100 μl of 10 mM Tris base (unbuffered, pH>9) is added per well. The plate is incubated at room temperature for at least 5 min and then the absorbance is read on an ELISA plate reader at 564 nm.
(§3) To determine the in vitro sensitivity profile of T7 cells to ingenol mebutate treatment, a dose-response is generated by using the SRB stain to monitor cellular protein. Cells are seeded at high density and treated with ingenol mebutate (0.232-232 μM) for 48 h. The plates are fixed and are stained with SRB. […]
(§4) Cells are treated with 0.232-232 μM of ingenol mebutate. […] After 2 days, total protein is determined using SRB staining. […]

Assay [1] concerns B16. Kind of assay: In vitro cytotoxicity assay (SRB). It counts as cell-based, murine. As to conditions: 48 h, DMSO. How it is done:
as §1, §2, §3, §4

The next assay relates to T7 cells. Kind of assay: In vitro cytotoxicity assay (SRB). It counts as cell-based, murine. As to conditions: 48 h, DMSO. How it is done: as §1, §2, §3, §4
The test system of assay [2] is B16. As to conditions: Ogbourne et al. 2004; cited from earlier work.
For assay [3] the following is noted: Ogbourne et al. 2004; cited from earlier work.

Each structure is given as a SMILES string.

As for `C/C=C(/C)C(=O)O[C@H]1C(C)=C[C@]23C(=O)[C@@H](C=C(CO)[C@@H](O)[C@]12O)[C@H]1[C@@H](C[C@H]3C)C1(C)C` [ingenol mebutate], the “90% lethal dose (LD90)” value in the assay with UV-13.1, in the assay with B16 [1] and in the assay with T7 cells was 100 to 110 µM throughout. For the same compound, the LD90 in the assay with B16 [2] is 190 µM. In addition, the LD90 values in assay [3] is 180 to 220 µM.
